Calls of active or inactive are those of the source. The rule behind the calls is not given here.
How the values were obtained:
[1] = target: Histone deacetylase 4 (Homo sapiens) (UniProt P56524); experiment: Inhibition of HDAC4 (unknown origin) assessed as remaining enzyme activity at 1 uM using Boc-(Trifluoroacetyl) Lysine-AMC fluorogenic peptide as substrate preincubated for 10 mins followed by substrate addition for 30 mins in presence of ATP by fluoroscence based assay relative to control; settings: time 40.0 min
Chain of Histone deacetylase 4 (Homo sapiens) (P56524 whole entry): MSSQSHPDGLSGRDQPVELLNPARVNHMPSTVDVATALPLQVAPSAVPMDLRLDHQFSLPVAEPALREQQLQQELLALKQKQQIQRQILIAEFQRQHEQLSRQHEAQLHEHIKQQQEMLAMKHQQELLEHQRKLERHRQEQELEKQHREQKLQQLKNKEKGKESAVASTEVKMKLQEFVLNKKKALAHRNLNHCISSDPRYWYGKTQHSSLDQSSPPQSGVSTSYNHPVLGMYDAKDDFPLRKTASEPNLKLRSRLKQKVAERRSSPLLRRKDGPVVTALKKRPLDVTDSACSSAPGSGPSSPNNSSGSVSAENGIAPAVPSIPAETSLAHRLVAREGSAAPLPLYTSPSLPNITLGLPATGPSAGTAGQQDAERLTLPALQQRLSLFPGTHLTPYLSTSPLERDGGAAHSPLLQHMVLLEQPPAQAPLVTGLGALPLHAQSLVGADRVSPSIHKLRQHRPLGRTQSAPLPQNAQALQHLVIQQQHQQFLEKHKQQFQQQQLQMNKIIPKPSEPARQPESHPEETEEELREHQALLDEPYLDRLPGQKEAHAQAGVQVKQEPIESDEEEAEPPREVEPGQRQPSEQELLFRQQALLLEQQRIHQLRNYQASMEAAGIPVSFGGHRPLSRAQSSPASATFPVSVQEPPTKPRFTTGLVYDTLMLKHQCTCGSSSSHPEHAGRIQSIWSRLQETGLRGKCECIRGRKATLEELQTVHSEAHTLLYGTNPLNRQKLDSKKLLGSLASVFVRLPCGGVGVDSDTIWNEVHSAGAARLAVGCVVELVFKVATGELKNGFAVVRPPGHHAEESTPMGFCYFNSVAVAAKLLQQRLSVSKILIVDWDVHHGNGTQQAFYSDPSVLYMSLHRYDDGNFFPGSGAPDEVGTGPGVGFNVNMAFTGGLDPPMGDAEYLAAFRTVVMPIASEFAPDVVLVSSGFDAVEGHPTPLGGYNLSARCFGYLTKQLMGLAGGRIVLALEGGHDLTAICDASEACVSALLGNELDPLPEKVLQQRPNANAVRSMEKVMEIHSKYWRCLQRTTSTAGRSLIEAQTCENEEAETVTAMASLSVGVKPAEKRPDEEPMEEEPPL

[2] = target: Histone deacetylase 5 (Homo sapiens) (UniProt Q9UQL6); experiment: Inhibition of HDAC5 (unknown origin) assessed as remaining enzyme activity at 1 uM using Boc-(Trifluoroacetyl) Lysine-AMC fluorogenic peptide as substrate preincubated for 10 mins followed by substrate addition for 30 mins in presence of ATP by fluoroscence based assay relative to control; settings: time 40.0 min
Chain of Histone deacetylase 5 (Homo sapiens) (Q9UQL6 whole entry): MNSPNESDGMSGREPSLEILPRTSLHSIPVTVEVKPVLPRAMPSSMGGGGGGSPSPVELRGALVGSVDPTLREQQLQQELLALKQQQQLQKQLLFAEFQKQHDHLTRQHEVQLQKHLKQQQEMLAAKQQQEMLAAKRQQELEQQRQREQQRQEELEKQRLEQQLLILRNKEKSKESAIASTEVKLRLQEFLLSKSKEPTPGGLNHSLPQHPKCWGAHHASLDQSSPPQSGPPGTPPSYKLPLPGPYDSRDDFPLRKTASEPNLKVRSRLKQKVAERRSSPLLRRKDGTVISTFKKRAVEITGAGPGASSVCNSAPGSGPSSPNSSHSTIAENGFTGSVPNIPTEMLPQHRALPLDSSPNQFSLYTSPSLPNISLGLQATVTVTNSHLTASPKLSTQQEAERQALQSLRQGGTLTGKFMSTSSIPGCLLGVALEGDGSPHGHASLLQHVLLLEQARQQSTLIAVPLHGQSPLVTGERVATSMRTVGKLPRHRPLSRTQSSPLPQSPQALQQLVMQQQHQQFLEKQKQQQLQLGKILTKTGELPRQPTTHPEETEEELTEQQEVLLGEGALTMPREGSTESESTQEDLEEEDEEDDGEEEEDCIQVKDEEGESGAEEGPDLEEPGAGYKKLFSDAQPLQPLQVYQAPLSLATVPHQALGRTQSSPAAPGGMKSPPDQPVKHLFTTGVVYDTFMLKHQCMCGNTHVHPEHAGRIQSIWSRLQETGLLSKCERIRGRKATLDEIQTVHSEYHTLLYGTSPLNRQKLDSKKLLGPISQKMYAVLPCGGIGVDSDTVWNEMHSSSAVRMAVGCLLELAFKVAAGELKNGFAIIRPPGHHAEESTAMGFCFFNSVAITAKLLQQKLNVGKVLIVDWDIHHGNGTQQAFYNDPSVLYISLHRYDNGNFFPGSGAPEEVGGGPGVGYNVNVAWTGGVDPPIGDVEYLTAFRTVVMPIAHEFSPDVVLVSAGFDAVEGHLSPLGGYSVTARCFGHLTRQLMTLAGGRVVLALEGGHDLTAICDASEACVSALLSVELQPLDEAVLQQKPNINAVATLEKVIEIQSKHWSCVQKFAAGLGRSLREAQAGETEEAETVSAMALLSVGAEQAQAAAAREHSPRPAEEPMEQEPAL

[3] = target: Histone deacetylase 7 (Homo sapiens) (UniProt Q8WUI4); experiment: Inhibition of HDAC7 (unknown origin) assessed as remaining enzyme activity at 1 uM using Boc-(Trifluoroacetyl) Lysine-AMC fluorogenic peptide as substrate preincubated for 10 mins followed by substrate addition for 30 mins in presence of ATP by fluoroscence based assay relative to control; settings: time 40.0 min
Chain of Histone deacetylase 7 (Homo sapiens) (Q8WUI4 whole entry): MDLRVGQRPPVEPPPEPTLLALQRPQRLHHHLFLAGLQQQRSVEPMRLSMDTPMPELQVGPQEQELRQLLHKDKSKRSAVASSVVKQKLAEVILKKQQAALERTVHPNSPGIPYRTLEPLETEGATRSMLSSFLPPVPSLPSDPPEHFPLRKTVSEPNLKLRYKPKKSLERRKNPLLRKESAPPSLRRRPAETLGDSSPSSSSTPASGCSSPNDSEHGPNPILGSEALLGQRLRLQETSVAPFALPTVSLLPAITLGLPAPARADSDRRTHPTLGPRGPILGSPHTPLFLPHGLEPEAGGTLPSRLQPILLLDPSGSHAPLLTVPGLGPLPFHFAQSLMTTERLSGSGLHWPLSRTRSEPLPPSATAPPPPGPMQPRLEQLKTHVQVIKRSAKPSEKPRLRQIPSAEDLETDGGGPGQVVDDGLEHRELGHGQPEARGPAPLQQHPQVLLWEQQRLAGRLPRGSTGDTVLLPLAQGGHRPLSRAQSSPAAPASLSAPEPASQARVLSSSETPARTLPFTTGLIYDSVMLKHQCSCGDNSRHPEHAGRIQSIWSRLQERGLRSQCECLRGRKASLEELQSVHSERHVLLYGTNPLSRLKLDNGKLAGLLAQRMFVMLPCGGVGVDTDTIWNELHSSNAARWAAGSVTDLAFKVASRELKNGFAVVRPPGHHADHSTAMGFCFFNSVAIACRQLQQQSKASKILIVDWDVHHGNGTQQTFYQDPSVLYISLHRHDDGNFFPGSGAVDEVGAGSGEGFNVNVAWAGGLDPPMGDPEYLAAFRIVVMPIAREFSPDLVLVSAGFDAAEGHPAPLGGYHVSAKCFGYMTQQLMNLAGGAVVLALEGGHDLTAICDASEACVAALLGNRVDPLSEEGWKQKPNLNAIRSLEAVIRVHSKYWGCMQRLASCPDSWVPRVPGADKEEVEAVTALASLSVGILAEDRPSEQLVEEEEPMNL

[4] = target: Histone deacetylase 9 (Homo sapiens) (UniProt Q9UKV0); experiment: Inhibition of HDAC9 (unknown origin) assessed as remaining enzyme activity at 1 uM using Boc-(Trifluoroacetyl) Lysine-AMC fluorogenic peptide as substrate preincubated for 10 mins followed by substrate addition for 30 mins in presence of ATP by fluoroscence based assay relative to control; settings: time 40.0 min
[5] = target: Protein deacetylase HDAC6 (Homo sapiens) (UniProt Q9UBN7); experiment: Inhibition of HDAC6 (unknown origin) assessed as remaining enzyme activity at 1 uM using RHKK(Ac)AMC fluorogenic peptide as substrate preincubated for 10 mins followed by substrate addition for 1 hr in presence of ATP by fluoroscence based assay relative to control; settings: time 70.0 min
[6] = target: Histone deacetylase 11 (Homo sapiens) (UniProt Q96DB2); experiment: Inhibition of HDAC11 (unknown origin) assessed as remaining activity using (Boc-(Trifluoroacetyl) Lysine-AMC) fluorogenic peptide as substrate preincubated for 10 mins followed by substrate addition for 30 mins in presence of ATP by fluoroscence assay relative to control; settings: time 40.0 min
Chain of Histone deacetylase 11 (Homo sapiens) (Q96DB2 whole entry): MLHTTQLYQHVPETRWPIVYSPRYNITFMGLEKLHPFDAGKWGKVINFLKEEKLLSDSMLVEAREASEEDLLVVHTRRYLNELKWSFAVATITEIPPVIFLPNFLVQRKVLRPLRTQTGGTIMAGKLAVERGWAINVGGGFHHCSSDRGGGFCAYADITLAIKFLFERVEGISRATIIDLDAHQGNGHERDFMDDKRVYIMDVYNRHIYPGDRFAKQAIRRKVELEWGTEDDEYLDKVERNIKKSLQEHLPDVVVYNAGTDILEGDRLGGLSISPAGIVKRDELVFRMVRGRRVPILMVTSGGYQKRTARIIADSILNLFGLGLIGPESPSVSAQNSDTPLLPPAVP

TMD8 [7] = experiment: In vivo antitumor activity against TMD8 cells xenografted in CB.17 SCID mouse assessed as inhibition of tumor growth at 50 mg/kg/day, po for 21 consecutive days measured every 3 days by Vernier caliper; assay type: functional, organism-based; settings: Homo sapiens, time 21.0 day
Histone deacetylase 1 [8] = target: T1, Histone deacetylase 1 (Homo sapiens, UniProt Q13547); experiment: Inhibition of HDAC1 in human TMD8 cells assessed as histone H3 acetylation after 24 hrs by Western blot analysis; assay type: cell-based; settings: dose 2.5-10 µM, DDE = dose-dependent effect
T1 sequence (Q13547 whole entry): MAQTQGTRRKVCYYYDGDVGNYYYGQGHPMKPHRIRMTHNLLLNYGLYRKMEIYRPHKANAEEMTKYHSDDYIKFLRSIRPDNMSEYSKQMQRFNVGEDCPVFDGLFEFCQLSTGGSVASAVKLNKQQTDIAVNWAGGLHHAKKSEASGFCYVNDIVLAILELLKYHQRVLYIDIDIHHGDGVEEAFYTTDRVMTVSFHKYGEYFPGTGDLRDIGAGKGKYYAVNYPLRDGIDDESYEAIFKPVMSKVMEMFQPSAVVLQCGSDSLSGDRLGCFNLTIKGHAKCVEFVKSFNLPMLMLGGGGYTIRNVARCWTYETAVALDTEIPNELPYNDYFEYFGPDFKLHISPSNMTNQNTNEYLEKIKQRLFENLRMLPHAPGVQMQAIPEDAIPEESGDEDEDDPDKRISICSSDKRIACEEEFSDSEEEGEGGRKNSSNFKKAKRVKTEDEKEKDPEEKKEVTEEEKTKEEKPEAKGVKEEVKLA

Histone deacetylase 1 [9] = target: T1, Histone deacetylase 1; experiment: Inhibition of HDAC1 in human TMD8 cells assessed as histone H4 acetylation after 24 hrs by Western blot analysis; assay type: cell-based; settings: dose 2.5-10 µM, DDE = dose-dependent effect
Histone deacetylase 2 [10] = target: T2, Histone deacetylase 2 (Homo sapiens, UniProt Q92769); experiment: Inhibition of HDAC2 in human TMD8 cells assessed as histone H3 acetylation after 24 hrs by Western blot analysis; assay type: cell-based; settings: dose 2.5-10 µM, DDE = dose-dependent effect
T2 sequence (Q92769 whole entry): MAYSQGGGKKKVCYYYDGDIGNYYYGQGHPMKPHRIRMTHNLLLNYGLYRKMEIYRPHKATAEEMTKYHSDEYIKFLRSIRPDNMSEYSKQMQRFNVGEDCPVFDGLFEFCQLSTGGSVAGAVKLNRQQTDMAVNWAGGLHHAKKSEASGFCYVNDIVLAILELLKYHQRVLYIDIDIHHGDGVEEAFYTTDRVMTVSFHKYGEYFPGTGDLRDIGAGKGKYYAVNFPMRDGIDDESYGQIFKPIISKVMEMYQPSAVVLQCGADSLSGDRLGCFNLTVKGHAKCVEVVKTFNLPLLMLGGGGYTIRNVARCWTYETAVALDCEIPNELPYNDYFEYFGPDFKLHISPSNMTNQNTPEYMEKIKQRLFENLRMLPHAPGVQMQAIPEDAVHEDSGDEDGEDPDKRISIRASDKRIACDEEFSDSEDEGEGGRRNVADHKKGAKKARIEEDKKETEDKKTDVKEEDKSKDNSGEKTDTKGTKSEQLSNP

Histone deacetylase 2 [11] = target: T2, Histone deacetylase 2; experiment: Inhibition of HDAC2 in human TMD8 cells assessed as histone H4 acetylation after 24 hrs by Western blot analysis; assay type: cell-based; settings: dose 2.5-10 µM, DDE = dose-dependent effect
Histone deacetylase 3 [12] = target: T3, Histone deacetylase 3 (Homo sapiens, UniProt O15379); experiment: Inhibition of HDAC3 in human TMD8 cells assessed as histone H3 acetylation after 24 hrs by Western blot analysis; assay type: cell-based; settings: dose 2.5-10 µM, DDE = dose-dependent effect
T3 sequence (O15379 whole entry): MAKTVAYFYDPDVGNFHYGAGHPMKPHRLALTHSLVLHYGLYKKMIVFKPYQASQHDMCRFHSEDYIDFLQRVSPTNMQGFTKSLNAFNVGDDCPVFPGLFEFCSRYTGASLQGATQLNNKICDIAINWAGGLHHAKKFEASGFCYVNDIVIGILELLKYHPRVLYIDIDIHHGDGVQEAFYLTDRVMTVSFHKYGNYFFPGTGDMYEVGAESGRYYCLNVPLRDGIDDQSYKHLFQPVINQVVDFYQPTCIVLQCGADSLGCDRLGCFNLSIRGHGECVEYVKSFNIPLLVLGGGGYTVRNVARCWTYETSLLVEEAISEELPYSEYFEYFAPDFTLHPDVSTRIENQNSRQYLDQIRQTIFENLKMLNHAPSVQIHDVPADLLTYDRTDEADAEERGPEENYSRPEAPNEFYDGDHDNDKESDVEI

Histone deacetylase 3 [13] = target: T3, Histone deacetylase 3; experiment: Inhibition of HDAC3 in human TMD8 cells assessed as histone H4 acetylation after 24 hrs by Western blot analysis; assay type: cell-based; settings: dose 2.5-10 µM, DDE = dose-dependent effect
TMD8 [14] = experiment: Induction of apoptosis in human TMD8 cells assessed as cleavage of inactive caspase-3 at 2.5 to 10 uM after 24 hrs by Western blot analysis; assay type: functional, cell-based; settings: dose 2.5-10 µM
TMD8 [15] = experiment: Induction of apoptosis in human TMD8 cells assessed as increase in cleaved caspase-3 levels at 2.5 to 10 uM after 24 hrs by Western blot analysis; assay type: functional, cell-based; settings: dose 2.5-10 µM
TMD8 [16] = experiment: Induction of apoptosis in human TMD8 cells assessed as increase in cleaved PARP levels at 2.5 to 10 uM after 24 hrs by Western blot analysis; assay type: functional, cell-based; settings: dose 2.5-10 µM
Mus musculus = experiment: Upregulation of acetylated-H3 levels in CB.17 SCID mouse xenografted with human TMD8 cells at 50 to 100 mg/kg/day, po measured after 21 days by Western blot analysis; assay type: functional, organism-based; settings: dose 50-100 mg/kg/day, time 21.0 day
TMD8 [17] = experiment: Induction of cell cycle arrest in human TMD8 cells assessed as accumulation of cells at G2/M phase incubated for 24 hrs by propidium iodide based flow cytometric analysis; assay type: functional; settings: dose 0.25-1 µM, DDE = dose-dependent effect
DLBCL = experiment: Cytotoxicity against human DLBCL cells assessed as cell growth inhibition; assay type: functional, cell-based
TMD8 [18] = experiment: Induction of apoptosis in human TMD8 cells incubated for 24 hrs by propidium iodide based flow cytometric analysis; assay type: functional, cell-based; settings: dose 0.25-1 µM, DDE = dose-dependent effect
[19] = Metabolic stability in human liver microsomes assessed as half life measured for 75 to 130 mins by LC-MS/MS analysis; assay type: ADME, Microsome; settings: microsomes, time 75-130 min
[20] = Metabolic stability in human liver microsomes assessed as intrinsic clearance measured for 75 to 130 mins by LC-MS/MS analysis; assay type: ADME, Microsome; settings: microsomes, time 75-130 min
MDA-MB-231 [21] = experiment: Antiproliferative activity against human MDA-MB-231 cells incubated for 72 hrs by luminescence assay; assay type: functional, cell-based; settings: MDA-MB-231, 72 h
TMD8 [22] = experiment: Antiproliferative activity against human TMD8 cells assessed as remaining cell activity at 2 uM incubated for 72 hrs by luminescence assay relative to control; assay type: functional
HCT-116 = experiment: Antiproliferative activity against human HCT-116 cells assessed as remaining cell activity at 2 uM incubated for 72 hrs by luminescence assay relative to control; assay type: functional
A549 [23] = experiment: Antiproliferative activity against human A549 cells assessed as remaining cell activity at 2 uM incubated for 72 hrs by luminescence assay relative to control; assay type: functional
MDA-MB-231 [24] = experiment: Antiproliferative activity against human MDA-MB-231 cells assessed as remaining cell activity at 2 uM incubated for 72 hrs by luminescence assay relative to control; assay type: functional
A549 [25] = experiment: Antiproliferative activity against human A549 cells incubated for 72 hrs by luminescence assay; assay type: functional, cell-based; settings: A549, 72 h
NCI-H460 = experiment: Antiproliferative activity against human NCI-H460 cells incubated for 72 hrs by luminescence assay; assay type: functional, cell-based; settings: NCI-H460, 72 h
SK-OV-3 = experiment: Antiproliferative activity against human SK-OV-3 cells incubated for 72 hrs by luminescence assay; assay type: functional, cell-based; settings: SK-OV-3, 72 h
HT-29 = experiment: Antiproliferative activity against human HT-29 cells incubated for 72 hrs by luminescence assay; assay type: functional, cell-based; settings: HT-29, 72 h
COLO-678 = experiment: Antiproliferative activity against human COLO-678 cells incubated for 72 hrs by luminescence assay; assay type: functional, cell-based; settings: COLO-678, 72 h
NCI-H441 = experiment: Antiproliferative activity against human NCI-H441 cells incubated for 72 hrs by luminescence assay; assay type: functional, cell-based; settings: NCI-H441, 72 h
CWR22R = experiment: Antiproliferative activity against human 22Rv1 cells incubated for 72 hrs by luminescence assay; assay type: functional, cell-based; settings: 22Rv1, 72 h
786-0 = experiment: Antiproliferative activity against human 786-O cells incubated for 72 hrs by luminescence assay; assay type: functional, cell-based; settings: 786-0, 72 h
TMD8 [26] = experiment: Antiproliferative activity against human TMD8 cells incubated for 72 hrs by luminescence assay; assay type: functional, cell-based; settings: TMD8, 72 h
DOHH-2 = experiment: Antiproliferative activity against human DOHH-2 cells incubated for 72 hrs by luminescence assay; assay type: functional, cell-based; settings: DOHH-2, 72 h
CCRF-CEM = experiment: Antiproliferative activity against human CCRF-CEM cells incubated for 72 hrs by luminescence assay; assay type: functional, cell-based
SU-DHL-2 = experiment: Antiproliferative activity against human SUDHL2 cells incubated for 72 hrs by luminescence assay; assay type: functional, cell-based; settings: SU-DHL-2, 72 h
Rec1 = experiment: Antiproliferative activity against human REC1 cells incubated for 72 hrs by luminescence assay; assay type: functional, cell-based; settings: Rec1, 72 h
MOLT-4 = experiment: Antiproliferative activity against human MOLT-4 cells incubated for 72 hrs by luminescence assay; assay type: functional, cell-based; settings: MOLT-4, 72 h
HuT78 = experiment: Antiproliferative activity against human HuT78 cells incubated for 72 hrs by luminescence assay; assay type: functional, cell-based; settings: HuT78, 72 h
RS4-11 = experiment: Antiproliferative activity against human RS4-11 cells incubated for 72 hrs by luminescence assay; assay type: functional, cell-based; settings: RS4-11, 72 h
[27] = Metabolic stability in mouse liver microsomes assessed as half life measured for 75 to 130 mins by LC-MS/MS analysis; assay type: ADME, Microsome; settings: time 75-130 min
[28] = Cmax in ICR mouse at 25 mg/kg, po measured upto 24 hrs by LC-MS/MS analysis; assay type: ADME, organism-based; set-up: time < 24 hrs, dose 25 mg/kg, route po; settings: in vivo
[29] = Half life in ICR mouse at 25 mg/kg, po measured upto 24 hrs by LC-MS/MS analysis; assay type: ADME, organism-based; settings: in vivo
[30] = AUC (0 to infinity) in ICR mouse at 2 mg/kg, iv measured upto 24 hrs by LC-MS/MS analysis; assay type: ADME, organism-based; set-up: time < 24 hrs, dose 2 mg/kg, route iv; settings: in vivo
[31] = AUC (0 to infinity) in ICR mouse at 25 mg/kg, po measured upto 24 hrs by LC-MS/MS analysis; assay type: ADME, organism-based; set-up: time < 24 hrs, dose 25 mg/kg, route po; settings: in vivo
[32] = MRT in ICR mouse at 25 mg/kg, po measured upto 24 hrs by LC-MS/MS analysis; assay type: ADME, organism-based; settings: in vivo
[33] = Oral bioavailability in ICR mouse at 25 mg/kg measured upto 24 hrs by LC-MS/MS analysis; assay type: ADME, organism-based; settings: in vivo

Nc1ccccc1NC(=O)c1ccc(CN2CCC/C(=C\c3ccccn3)C2=O)cc1
Activity [1]: 81.2% | Activity [2]: 84.4% | Activity [3]: 88.1% | Activity [4]: 92.3% | Activity [5]: 96.9% | Activity [6]: 92% | Activity (TMD8 [7]): Active | inhibition (Histone deacetylase 1 [8]): Dde | inhibition (Histone deacetylase 1 [9]): Dde | inhibition (Histone deacetylase 2 [10]): Dde | inhibition (Histone deacetylase 2 [11]): Dde | inhibition (Histone deacetylase 3 [12]): Dde | inhibition (Histone deacetylase 3 [13]): Dde | Activity (TMD8 [14]): Active | Activity (TMD8 [15]): Active | Activity (TMD8 [16]): Active | Activity (Mus musculus): Active | Activity (TMD8 [17]): Dde | Activity (DLBCL): Active | Activity (TMD8 [18]): Dde

Nc1cc(F)ccc1NC(=O)c1ccc(CNC(=O)/C=C/c2cccnc2)cc1 [TUCIDINOSTAT]
t1/2 [19]: 6.27 h | Intrinsic clearance in human liver microsomes [20]: 1.7 µL/min/mg | IC50 (MDA-MB-231 [21]): 9520 nM | Activity (TMD8 [22]): 5.96% | Activity (HCT-116): 102.26% | Activity (A549 [23]): 96.6% | Activity (MDA-MB-231 [24]): 69.91% | IC50 (A549 [25]): 2790 nM | IC50 (NCI-H460): 2340 nM | IC50 (SK-OV-3): 8460 nM | IC50 (HT-29): 6040 nM | IC50 (COLO-678): > 10000 nM | IC50 (NCI-H441): 2620 nM | IC50 (CWR22R): 1080 nM | IC50 (786-0): 630 nM | IC50 (TMD8 [26]): 480 nM | IC50 (DOHH-2): 530 nM | IC50 (CCRF-CEM): 830 nM | IC50 (SU-DHL-2): 560 nM | IC50 (Rec1): 1010 nM | IC50 (MOLT-4): 750 nM | IC50 (HuT78): 2420 nM | IC50 (RS4-11): 600 nM | half-life [27]: 1.3 h | Cmax [28]: 1220 ng/mL | half-life [29]: 4 h | AUC(0-inf) [30]: 1350 ng·h/mL | AUC(0-inf) [31]: 3520 ng·h/mL | MRT [32]: 4.2 h | bioavailability [33]: 20.8%

Reference: ChEMBL document CHEMBL5154672, “Design and synthesis of HDAC inhibitors to enhance the therapeutic effect of diffuse large B-cell lymphoma by improving metabolic stability and pharmacokinetic characteristics” (Eur J Med Chem, 2022)
